Measured values as given in patent US20090137662A1, “SYNERGY OF DOPAMINE D2 AND ADENOSINE A2 RECEPTORS ACTIVATES PKA SIGNALING VIA BETA/GAMMA DIMERS” (The Regents of the University of California, priority 2002, published 2009).

Legend:
PKA Cα [1] = assay: PKA Cα translocation in NG108-15/D2 cells (immunocytochemistry, cell fractionation/western)
PKA Cα [2] = assay type: cell-based
Source text: (§1) To determine whether addictive drugs other than ethanol would cause translocation of some proteins, we examine the effects of various receptor agonists and antagonists on ε-PKC δ-PKC or PKA Cα translocation in NG108-15 and CHO cells expressing the applicable receptor. […] Adenosine is also implicated in some behavioral effects of ethanol.

δ-PKC = assay: Translocation of δ-PKC in NG108-15 and CHO cells expressing the applicable receptor; assay type: cell-based
Source text: as §1
(§2) The mechanisms underlying ethanol- and dopamine-mediated translocation of ε-PKC and δ-PKC were studied by altering the activity of various molecules that might be in the pathways leading to translocation.

CREB phosphorylation = CREB phosphorylation measured with antibody specific for phosphorylated CREB; assay type: cell-based
GFP-Cα = assay type: cell-based
ε-PKC [3] = assay: Translocation of ε-PKC in NG108-15 and CHO cells expressing the applicable receptor; assay type: cell-based
Source text: as §1, §2

PKA Cα [4] = assay: PKA Cα translocation in primary cultures of hippocampal neurons; conditions: for effect on NPA-induced PKA Cα translocation / effect of agent alone on PKA Cα localization: primary hippocampal neurons; for effect on NPA-induced PKA Cα translocation: 50 nM NPA, spiperone 10 μM, DPCPX 100 nM, DMPX 10 μM 30 min, Rp-cAMPS 20 μM 1.5 hours, PTX 50 ng/ml or Ad5QEHA overnight; for effect of agent alone on PKA Cα localization: data not shown
[5] = test system: CRE-mediated gene expression; assay: CRE-luciferase reporter assay in NG108-15/D2 cells; conditions: for effect of agent alone on luciferase activity / gene expression: NG108-15/D2 cells, spiperone, Rp-cAMPS or PTX alone
Experimental: Cells were transiently transfected with a CRE-luciferase reporter construct to measure gene expression via endogenous CRE-binding protein (CREB).
NG108-15/D2 cells were plated at 1×10^6 cells/100 mm plate, grown in defined medium for 3 days, and then transfected with 10 μg of CRE-luciferase construct using the LipofectAMINE reagent (GIBCOL) as recommended by the manufacturer. Cells were cultured for 24 h post transfection before being seeded into 12-well plates. […] Cells were then washed with PBS and cultured for a total of 5 h. Cell extracts were prepared and luciferase activity measured with a luciferase assay system (Promega, Madison, Wis.), using a Rosys Anthos Lucy2 microplate luminometer (Anthos Labtec Instruments, Austria). Results are expressed as percent increase over control. Data represent three or more separate experiments from triplet wells. Luciferase activities were normalized for transfection efficiency determined in cells transfected in parallel with pCMVβgalactosidase. β-galactosidase activity was measured using a kit from Strategene (La Jolla, Calif.).

[6] = test system: CRE-regulated luciferase expression; assay: CRE-luciferase reporter in NG108-15 cells; assay type: cell-based; conditions: NG108-15 cells; 200 mM ethanol co-incubated with Rp-cAMPS 20 μM
Experimental: Luciferase is used as a reporter gene in a transient expression system to identify substances that alter the effects of ethanol on CRE-regulated gene expression. Cells are cultured as described in Dohrman et al., Proc Natl Acad Sci USA (1996) 93:10217-10221, and are transfected using Effectene (Qiagene) as described by the manufacturers. Twenty-four hours after transfection the cells are treated with 200 mM ethanol for 30 min. to 36 hr. Luciferase activity is measured using Luciferase Assay System (Promega) and normalized to β-galactosidase activity.
(§3) NG108-15 cells were co-transfected with a fusion construct containing the cAMP response element (CRE) fused to luciferase as a reporter gene (Stratagene).
Since the ERK/MAPK pathway may regulate CREB phosphorylation and CRE-mediated gene expression, NG108-15 cells having the luciferase construct were co-incubated with 200 mM ethanol and a MEK inhibitor (PD98059 (2 nM, Calbiochem, San Diego, Calif.) or U0126 (1 μM, Calbiochem, San Diego, Calif.)) or a dominant negative MEK construct (DN-MEK, Dr. R. Seger) in which Lys-97 was replaced by alanine.
as §3

[7] = test system: CREB (GAL4-CREB fusion, luciferase reporter); assay: GAL4-CREB / GAL4-luciferase reporter in NG108-15 cells; assay type: cell-based; conditions: 20 μM Rp-cAMPS 2 h, 5 μM KN-62 or 50 nM GF 30 min pretreatment, then ethanol 14 hours
Experimental: Cells are cultured as described in Dohrman et al., Proc Natl Acad Sci USA (1996) 93:10217-10221, and are transfected using Effectene (Qiagene) as described by the manufacturers. […] Luciferase activity is measured using Luciferase Assay System (Promega) and normalized to β-galactosidase activity.
NG108-15 cells are co-transfected with a GAL4-CREB fusion construct and with a second construct containing the DNA binding site of GAL4 fused to luciferase as a reporter gene. […] The ethanol-induced increase in luciferase activity induced was inhibited by Rp-cAMPS but not by the CaMK and PKC inhibitors KN-62 and GF, respectively (FIGS. 15 and 16B).

ε-PKC [8] = assay type: cell-based
Experimental: NG 108-15 or CHO cells were pre-incubated in the presence or absence of the indicated inhibitor for 30 min. (except for GF which was pre-incubated for 1 hour), then further incubated in the absence or presence of 200 mM ethanol for 30 min.

[9] = test system: PKA subunits (RIα, RIIα, RIβ, Cα, Cβ, Cγ); assay: Immunocytochemical localization of PKA subunits in neutrophils; assay type: cell-based, human
Source text: Methods 5:249-252 (1974). […] This step removed contaminating platelets from the lymphocyte fraction. […] Images were further analyzed using NIH Image.

[10] = 10 μM spiperone or 10 μM BW 1434 + 200 mM ethanol

## CCCN1CCc2cccc3c2[C@H]1Cc1ccc(O)c(O)c1-3 [NPA, R(−)-10,11-dihydroxy-N-n-propylnorapomorphine]
PKA Cα [1]
  PKA Cα in subcellular fractions (Western blot): translocation of PKA Cα from the membrane fraction to the nucleus and cytoplasm
  PKA Cα localization after agonist or ethanol (immunostaining): translocation of PKA Cα from the Golgi into the cytoplasm and nucleus
  PKA Cα translocation, subthreshold NPA and ethanol together: striking synergistic increase
  PKA translocation at subthreshold concentration, agent alone: did not cause PKA translocation
  time at which NPA-induced PKA Cα translocation reaches a maximum: 10 min
PKA Cα [1]; read-out: Km of NPA-induced PKA Cα translocation (function of NPA concentration)
  Km: 1.6 nM
PKA Cα [2]
  Predominant Localization of PKA Cα (agent alone): Nucleus &
  translocation of PKA-Cα, agent alone: did not cause any perceptible translocation
  translocation of PKA-Cα, co-incubation of ethanol and NPA: maximal translocation
δ-PKC
  Predominant Localization of δ-PKC (agent alone): Perinucleus &
  Translocation of δ PKC and δ PKC, agent alone: neither agent alone caused translocation
  Translocation of δ PKC and δ PKC, co-incubation of NPA and ethanol: induced
CREB phosphorylation
  levels of CREB phosphorylation, co-incubation of ethanol and NPA: synergistic interactions
GFP-Cα
  Subcellular localization of GFP-Cα: Nucleus
  cells showing the stated localization of GFP-Cα: [>50% cells]
ε-PKC [3]
  Predominant Localization of ε-PKC (agent alone): Cytoplasm
PKA Cα [4]
  PKA Cα localization after agonist or ethanol: PKA Cα translocation to the cytoplasm, neurites and nucleus
  PKA Cα translocation, subthreshold NPA and ethanol together: Synergy of PKA Cα translocation occurs
[5]
  CRE-mediated luciferase activity, subthreshold NPA and ethanol together: striking synergistic increase
  luciferase activity (CRE-luciferase): increases luciferase activity to the same extent as forskolin

## Nc1ncnc2c1ncn2[C@@H]1O[C@@H]2CO[P@@](O)(=S)O[C@H]2[C@H]1O [Rp-cAMPS]
[6]
  effect on early (4 h) and late (14 h) phases of ethanol-induced increases in luciferase expression: completely inhibited both the early and late phases
δ-PKC
  effect on NPA-induced translocation of δ-PKC: did not affect
  effect on ethanol-induced translocation of δ-PKC: did not affect
ε-PKC [3]
  effect on NPA-induced translocation of ε-PKC: blocked
  effect on ethanol-induced translocation of ε-PKC: blocked
PKA Cα [4]
  effect on NPA-induced PKA Cα translocation: prevent
  effect of agent alone on PKA Cα localization: no effect
[7]
  effect on the ethanol-induced increase in luciferase activity (GAL4-CREB / GAL4-luciferase): inhibited
[5]
  effect of agent alone on luciferase activity / gene expression: without effect
ε-PKC [8]
  Predominant ε-PKC Localization (ethanol + inhibitor): Perinucleus

## C=C[C@@]1(C)CC(=O)[C@]2(O)[C@@]3(C)[C@@H](O)CCC(C)(C)[C@@H]3[C@H](O)[C@H](OC(C)=O)[C@@]2(C)O1 [forskolin]
[9]; neutrophils from non-alcoholics, 200 mM ethanol or 100 nM forskolin
  effect on localization of the catalytic subunits of PKA (Cα, Cβ, Cγ): no effect
[9]; neutrophils, ethanol or forskolin
  effect on the localization of RIIα: no effect

## O=C(CCCN1CCC2(CC1)C(=O)NCN2c1ccccc1)c1ccc(F)cc1 [spiperone]
PKA Cα [2]
  effect on NPA-induced translocation of PKA Cα: blocked
  effect on ethanol-induced translocation of PKA Cα: no effect
PKA Cα [2]; 10 μM spiperone + 50 nM NPA
  Predominant Localization of PKA Cα (antagonist + NPA): Golgi
PKA Cα [2]; 10 μM spiperone + 200 mM ethanol
  Predominant Localization of PKA Cα (antagonist + ethanol): Nucleus &
δ-PKC
  effect on NPA-induced translocation of δ-PKC: blocked
  effect on ethanol-induced translocation of δ-PKC: no effect
δ-PKC; 10 μM spiperone + 50 nM NPA
  Predominant Localization of δ-PKC (antagonist + NPA): Golgi
δ-PKC; [10]
  Predominant Localization of δ-PKC (antagonist + ethanol): Perinucleus &
ε-PKC [3]
  effect on NPA-induced translocation of ε-PKC: blocked
  effect on ethanol-induced translocation of ε-PKC: no effect
ε-PKC [3]; 10 μM spiperone + 50 nM NPA
  Predominant Localization of ε-PKC (antagonist + NPA): Perinucleus
ε-PKC [3]; [10]
  Predominant Localization of ε-PKC (antagonist + ethanol): Cytoplasm
PKA Cα [4]
  effect on NPA-induced PKA Cα translocation: blocks
  effect of agent alone on PKA Cα localization: no effect
[5]
  effect of agent alone on luciferase activity / gene expression: without effect
